# Reference: patent publication US12213970B2, “Pyridinyl sulfonamide derivatives, pharmaceutical compositions and uses thereof” (Boehringer Ingelheim International GmbH, priority 2018, dated 2025)
# Counter-ions that a name gives are not always drawn. Like-named read-outs stand apart in the source and are kept apart here.
# Columns and labels:
# AOC2 = target: T1, AOC2 (Homo sapiens, UniProt O75106); test: AOC2 biochemical assay (Amplex Red)
# T1 construct: host or cells: HEK293 cells (transient transfection), cell homogenate
# T1 sequence (O75106 1-756): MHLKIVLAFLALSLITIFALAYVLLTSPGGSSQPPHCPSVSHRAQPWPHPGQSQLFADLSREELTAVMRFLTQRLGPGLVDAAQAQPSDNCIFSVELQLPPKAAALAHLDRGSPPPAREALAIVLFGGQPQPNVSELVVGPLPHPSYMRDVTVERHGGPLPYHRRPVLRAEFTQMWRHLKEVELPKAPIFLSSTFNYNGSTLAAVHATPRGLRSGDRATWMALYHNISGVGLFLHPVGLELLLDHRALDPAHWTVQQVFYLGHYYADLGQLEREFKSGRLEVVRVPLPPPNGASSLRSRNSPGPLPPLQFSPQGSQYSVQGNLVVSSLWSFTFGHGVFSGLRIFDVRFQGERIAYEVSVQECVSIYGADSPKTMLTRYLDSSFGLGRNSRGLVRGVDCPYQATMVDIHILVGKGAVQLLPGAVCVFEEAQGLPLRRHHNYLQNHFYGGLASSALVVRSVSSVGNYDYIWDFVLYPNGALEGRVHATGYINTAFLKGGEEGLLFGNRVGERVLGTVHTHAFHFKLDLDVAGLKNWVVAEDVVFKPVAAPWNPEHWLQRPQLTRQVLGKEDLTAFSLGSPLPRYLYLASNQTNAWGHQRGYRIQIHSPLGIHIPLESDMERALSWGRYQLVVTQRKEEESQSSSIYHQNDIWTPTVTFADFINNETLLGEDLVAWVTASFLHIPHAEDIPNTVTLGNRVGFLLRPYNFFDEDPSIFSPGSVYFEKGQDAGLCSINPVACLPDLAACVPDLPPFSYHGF
# Procedure: The Amplex® Red Assay (commercially available from Thermo Fisher Scientific) provides a sensitive method for the detection of H2O2 generated during enzymatic reactions like the amine oxidation catalyzed by AOC2. […] An aliquot of 5 μL of the compound dilution is added to a 96 well plate (flat bottom F, black, GREINER bio-one, #655900) in a DMSO concentration of 2%. […] Cells are cultured for 3 days in EMEM culture medium containing 10% FCS (#04-00-1A, Biological Industries). After washing twice with ice cold PBS, cells are lysed by mechanic homogenation and cleared supernatants are shock frozen in liquid nitrogen and stored at -80° C. For the determination of AOC2 enzymatic activity cell lysates are thawed on ice and 1:1 diluted with reaction buffer. An Aliquot of 45 μL is added to the compound dilution and incubated for 30 min at 37° C. The enzymatic reaction is started with the addition of 50 μL of Amplex® Red reaction mix (final assay concentration: 100 mM sodiumphosphate, 120 μM Amplex® Red reagent (#A22177 Molecular Probes), 1.5 U/mL Horseradish Peroxidase (#P8375 Sigma-Aldrich), 2 mM phenylethylamine (#[…] Sigma-Aldrich), 0.05% Pluronic F-127 (#P3000MP Sigma-Aldrich), pH 7.4, 37° C.). The turnover per time of the substrate is determined directly with a fluorescence reader (Ex 540 nm/Em 590 nm) like Envision 2104 Multilabel Reader (PERKIN ELMER) for 60 min. (cf. Anal Biochem (1997) 253:169-174; Anal Biochem (1997) 253:162-168)
# AOC1 = target: T2, AOC1 (Homo sapiens, UniProt P19801); test: AOC1 biochemical assay (Amplex Red)
# T2 construct: purchased R&D Systems 8297-AO-010
# T2 sequence (P19801 20-751): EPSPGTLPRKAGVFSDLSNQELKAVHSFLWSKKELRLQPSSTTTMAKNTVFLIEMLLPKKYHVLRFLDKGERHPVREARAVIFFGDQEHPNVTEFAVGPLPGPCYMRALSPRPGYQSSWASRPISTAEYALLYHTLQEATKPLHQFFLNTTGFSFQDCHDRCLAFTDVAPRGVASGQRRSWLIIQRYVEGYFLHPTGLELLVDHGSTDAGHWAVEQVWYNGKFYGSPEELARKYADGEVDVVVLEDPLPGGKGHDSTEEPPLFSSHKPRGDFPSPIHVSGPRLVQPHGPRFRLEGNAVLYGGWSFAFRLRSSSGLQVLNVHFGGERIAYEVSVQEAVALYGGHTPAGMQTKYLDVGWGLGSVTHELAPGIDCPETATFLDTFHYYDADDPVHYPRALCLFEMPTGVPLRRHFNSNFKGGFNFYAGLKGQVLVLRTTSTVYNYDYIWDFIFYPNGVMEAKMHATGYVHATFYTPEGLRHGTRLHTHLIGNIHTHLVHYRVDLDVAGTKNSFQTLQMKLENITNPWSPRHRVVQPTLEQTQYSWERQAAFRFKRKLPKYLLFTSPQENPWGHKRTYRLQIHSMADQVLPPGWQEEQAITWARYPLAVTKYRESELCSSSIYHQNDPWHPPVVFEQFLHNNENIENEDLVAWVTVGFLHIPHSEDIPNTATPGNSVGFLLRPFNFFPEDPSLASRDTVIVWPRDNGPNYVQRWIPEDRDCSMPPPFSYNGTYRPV
# Procedure: The Amplex® Red Assay (available from Thermo Fisher Scientific) provides a sensitive method for the detection of H2O2 generated during enzymatic reactions like the amine oxidation catalyzed by AOC1. The assay reagent is a colorless substrate (N-acetyl-3,7-dihydroxyphenoxazine) that reacts in a 1:1 stoichiometry with hydrogen peroxide (H2O2) to produce the fluorescent dye resorufin (7-hydroxyphenoxazin-3-one, excitation/emission maxima=570/585 nm).
# An aliquot of 3 μL of the compound dilution is added to a 384 well plate (Optiplate, PS, flat bottom F, black, PERKIN ELMER, #6007270) in a DMSO concentration of 6.6%.
# An AOC1 enzyme aliquot (#8297-AO-010, R&D Systems) is thawed on ice, diluted in reaction buffer and added in a volume of 7 μL to the wells to give a final assay concentration of 1 ng/well. After incubation of inhibitor and enzyme for 30 minutes at 37° C., the enzymatic reaction is started with the addition of 10 μL of Amplex® Red reaction mix (final assay concentration: 100 mM sodiumphosphate, 120 μM Amplex® Red reagent (#A22177 Molecular Probes), 1.5 U/mL Horseradish Peroxidase (#P8375 Sigma-Aldrich), 200 μM putrescine (#P7505 Sigma-Alrdich), 0.05% Pluronic F-127 (#P3000MP Sigma-Aldrich), pH 7.4, 37° C.).
# After an incubation for 30 minutes at 37° C. the turnover of the substrate is determined directly (or after the addition of an excess of an amine-oxidase inhibitor) with a fluorescence reader (Ex 540 nm/Em 590 nm) like Envision 2104 Multilabel Reader (PERKIN ELMER).
# [1] = comparison table, read-out: IC50 AOC1
SMILES,IC50 (AOC2; read-out: AOC2 IC50) [µM],IC50 (AOC1; read-out: AOC1 IC50) [nM],further results
CC1(O)CCN(S(=O)(=O)c2ccc(OC/C(=C\F)CN)nc2)CC1 [Example 41],0.024,133,
"COC(=O)[C@H]1[C@@H]2CN(S(=O)(=O)c3ccc(OC/C(=C\F)CN)nc3)C[C@@H]21 [Example 35, trans-3-[6-((Z)-2-Aminomethyl-3-fluoro-allyloxy)-pyridine-3-sulfonyl]-3-aza-bicyclo[3.1.0]hexane-6-carboxylic acid methyl ester trifluoroacetate]",0.277,1840,
"COC1CN(S(=O)(=O)c2ccc(OC/C(=C\F)CN)cc2)C1 [Reference compound A, reference compound]",,,"ratio IC50 AOC2/IC50 AOC3 (fold less active against AOC2 as compared to AOC3) (AOC2; AOC2 versus AOC3): 52 fold; IC50 (AOC2; comparison table, read-out: IC50 AOC2): 0.156 µM; IC50 (AOC1; [1]): 1750 nM"
NC/C(=C/F)COc1ccc(S(=O)(=O)N2CCC(C(=O)N3CCOCC3)CC2)cn1 [Example 3],,16400,"IC50 (AOC2; value in μM, read-out: AOC2 IC50): 23.4 µM"
CC1(C(N)=O)CCN(S(=O)(=O)c2ccc(OC/C(=C\F)CN)nc2)CC1 [Example 49],0.021,553,
NC/C(=C/F)COc1ccc(S(=O)(=O)N2CCC(CC(N)=O)CC2)cn1 [Example 50],0.016,5310,
COC(=O)CC1CCN(S(=O)(=O)c2ccc(OC/C(=C\F)CN)nc2)CC1 [Example 32],0.039,5450,
NC/C(=C/F)COc1ccc(S(=O)(=O)N2CCC[C@@H]2C(N)=O)cn1 [Example 18],0.176,1220,
COC(=O)C1(C)CCN(S(=O)(=O)c2ccc(OC/C(=C\F)CN)nc2)CC1 [Example 36],0.003,1380,
CN(C)C(=O)C1CN(S(=O)(=O)c2ccc(OC/C(=C\F)CN)nc2)C1 [Example 25],0.068,1320,
NC/C(=C/F)COc1ccc(S(=O)(=O)N2CCCCC2)cn1 [Example 38],0.061,235,
NC/C(=C/F)COc1ccc(S(=O)(=O)N2CC[C@H](C(N)=O)C2)cn1 [Example 39],0.056,909,
CC1(O)CN(S(=O)(=O)c2ccc(OC/C(=C\F)CN)nc2)C1 [Example 16],0.189,441,
NC/C(=C/F)COc1ccc(S(=O)(=O)N2CC[C@@H](C(N)=O)C2)cn1 [Example 31],0.04,869,
CC(F)(F)CNC(=O)CC1CCN(S(=O)(=O)c2ccc(OC/C(=C\F)CN)nc2)CC1 [Example 51],,10300,
CC(=O)NC1CCN(S(=O)(=O)c2ccc(OC/C(=C\F)CN)nc2)C1 (centres unmarked) [Example 12],0.209,3180,
CNC(=O)[C@@]12C[C@@H]1CN(S(=O)(=O)c1ccc(OC/C(=C\F)CN)nc1)C2 [Example 29],0.058,1370,
CC(=O)N1CC(C2CCN(S(=O)(=O)c3ccc(OC/C(=C\F)CN)nc3)CC2)C1 [Example 9],0.222,4550,
NC/C(=C/F)COc1ccc(S(=O)(=O)N2CCC(C(=O)O)CC2)cn1 [Example 46],0.045,> 50000,
CNC(=O)[C@@H]1CCCN1S(=O)(=O)c1ccc(OC/C(=C\F)CN)nc1 [Example 8],0.257,497,
"NC/C(=C/F)COc1ccc(S(=O)(=O)N2CC[C@H](O)C2)cc1 [Reference compound B, reference compound]",,,IC50 (AOC1; [1]): 1210 nM
CC1(C(=O)NCCF)CCN(S(=O)(=O)c2ccc(OC/C(=C\F)CN)nc2)CC1 [Example 53],,14600,
NC/C(=C/F)COc1cnc(N2CCC(O)CC2)nc1 [reference compound],,,IC50 (AOC1; [1]): 66 nM
CC1(C(=O)NC2CC2)CCN(S(=O)(=O)c2ccc(OC/C(=C\F)CN)nc2)CC1 [Example 56],,11500,
NC/C(=C/F)COc1ccc(S(=O)(=O)N2CCC(CC(=O)NCCO)CC2)cn1 [Example 52],,15100,
COCCNC(=O)CC1CCN(S(=O)(=O)c2ccc(OC/C(=C\F)CN)nc2)CC1 [Example 54],,10500,
NC/C(=C/F)COc1ccc(S(=O)(=O)N2CCC(CC(=O)N3CC(O)C3)CC2)cn1 [Example 55],,27100,
